Laboratory results published in patent publication US9403805B2, “Antiviral compounds” (Hoffmann-La Roche Inc., priority 2012, dated 2016).

Tested on: HCV GT1b replicon
Assay: HCV GT1b replicon luciferase reporter assay (2209-23 cells)
Format: cell-based
Conditions: Hepatitis C virus, genotype 1a / genotype 1b; 2209-23 cells (Huh-7 with GT-1b Con1 subgenomic replicon), Renilla luciferase read 72 hours after compound addition; read-out: GT-1a - EC50 (nM) HCV, GT1b, IC50 (µM)
Description: Determination of compounds HCV GT1b inhibitory replicon activity using the replicon luciferase reporter assay
The 2209-23 cell line was developed at Roche by stable transfection of the hepatoma cell line Huh-7 with a GT-1b Con1 subgenomic bicistronic replicon as previously described. Subgenomic replicon cell line was established in cured Huh7 cells, obtained from R. Bartenschlager (J Virol. 2003 March; 77 (5):3007-19) The GT-1a H77 subgenomic replicon vector pRLuc H77 1b 75 S/I, was created by replacing the nonstructural region of the GT-1b Con1 subgenomic replicon by the one of the H77 strain, except for the first 75 amino acids of the NS3 protein that are from GT-1b Conl strain. (J. Virol. 2001 77:5352-59) The GT-1a pRLuc H77 1b 75 S/I subgenomic replicon cell line was established in cured Huh7 cells, obtained from R. Bartenschlager. (J Virol. 2003 March; 77 (5):3007-19)
All the subgenomic replicon cell lines were cultured in Dulbecco's Modified Eagle Medium (DMEM-Glutamax™-I; Invitrogen Cat #10569-010). The medium was supplemented with 10% Fetal Bovine Serum (Invitrogen Cat #10082-147), 1% penicillin/streptomycin (Mediatech Cat #30-002-CI) and 500 μg/ml of G418 (Mediatech Cat #30-234-CI). Cells were maintained at 37° C. in a humidified 5% CO2 atmosphere.
2209-23 cells were plated at a cell density of 5000 cells per well in 96 well plates (Becton Dickinson, Cat #35 3296). Cells were plated in 90 μl of Dulbecco's Modified Eagle Medium (DMEM-Glutamax™-I), (Invitrogen Cat #10569-010) medium was supplemented with 5% Fetal Bovine Serum (Invitrogen Cat #10082-147), 1% penicillin/streptomycin (Mediatech Cat #30-002-CI). The pRluc H77 1b 75 SA cells were plated in 96-well plate at 3000 cells/well in DMEM-Glutamax™-I containing 5% FBS and 1% penicillin/streptomycin in 90 μl final volume. Cells were allowed to equilibrate for 24 hours at 37° C. and 5% CO2 at which time compounds were added. Compounds (or medium as a control) were added 24 hours post-plating in 3 fold dilutions at a final DMSO concentration of 1% in 10 μl volume. Renilla luciferase reporter signal was read 72 hours after addition of compounds using the Renilla Luciferase Assay System (Promega, cat #E2820). EC50 values were defined as the compound concentration at which a 50% reduction in the levels of renilla luciferase reporter was observed as compared to control samples in the absence of compound and was determined by non-linear fitting of compound dose-response data. The EC50 was approximated if maximum percentage inhibition was less than 90% and more than 70%.

Row | SMILES | IC50 [nM]
1 | O=C(N[C@H]1C[C@@H](C(=O)NCc2ccccc2)N(CC2CCCCC2)C1)c1ccc2ccccc2c1O [Compound I-13, (2S,4S)-1-Cyclohexylmethyl-4-[(1-hydroxy-naphthalene-2-carbonyl)-amino]-pyrrolidine-2-carboxylic acid benzylamide] | 163
2 | O=C(N[C@H]1C[C@@H](C(=O)N2CCCC2)N(CC2CCCCC2)C1)c1ccc2ccccc2c1O [Compound I-26, 1-Hydroxy-naphthalene-2-carboxylic acid [(3S,5S)-1-cyclohexylmethyl-5-(pyrrolidine-1-carbonyl)-pyrrolidin-3-yl]-amide] | 640
